Active and inactive are the calls of the source. No cut-off for these calls is given here.
Biological target: 5'-AMP-activated protein kinase catalytic subunit alpha-2 (Mus musculus) (UniProt Q8BRK8)
Assay: Activation of AMPK in mouse […] cells at 5 uM by Western blotting
Assay type: cell-based

Chain of 5'-AMP-activated protein kinase catalytic subunit alpha-2 (Mus musculus) (Q8BRK8 whole entry): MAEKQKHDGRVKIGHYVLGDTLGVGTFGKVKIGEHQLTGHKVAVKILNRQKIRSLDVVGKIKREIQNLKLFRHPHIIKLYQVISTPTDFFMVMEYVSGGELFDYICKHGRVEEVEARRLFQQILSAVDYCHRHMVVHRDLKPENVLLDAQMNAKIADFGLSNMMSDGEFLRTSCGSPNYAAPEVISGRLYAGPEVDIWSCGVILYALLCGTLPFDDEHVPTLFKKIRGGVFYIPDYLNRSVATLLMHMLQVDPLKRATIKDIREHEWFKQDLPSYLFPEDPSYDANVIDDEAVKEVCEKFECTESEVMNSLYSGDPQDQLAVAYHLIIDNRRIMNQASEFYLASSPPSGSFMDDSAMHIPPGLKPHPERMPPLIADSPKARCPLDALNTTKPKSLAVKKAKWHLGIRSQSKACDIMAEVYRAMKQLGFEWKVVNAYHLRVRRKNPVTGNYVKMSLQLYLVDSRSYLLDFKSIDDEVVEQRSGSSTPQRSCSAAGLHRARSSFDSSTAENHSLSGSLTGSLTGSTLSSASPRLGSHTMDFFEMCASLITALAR

Row | Activity | Compound
1 | Active | COc1cc([C@H]2O[C@@H](c3ccc(O)c(OC)c3)[C@H](C)[C@@H]2C)ccc1O
2 | Active | COc1cc([C@H]2O[C@@H](c3ccc(O)c(OC)c3)[C@@H](C)[C@H]2C)ccc1O

Source: ChEMBL document CHEMBL1177805, “AMP-activated protein kinase (AMPK) activators from Myristica fragrans (nutmeg) and their anti-obesity effect” (Bioorg Med Chem Lett, 2010)
